Reference: the supplement of paper PMC11061612

What was measured:
MK-2206 = compound: NC1(c2ccc(-c3nc4ccn5c(=O)[nH]nc5c4cc3-c3ccccc3)cc2)CCC1 [MK-2206]; conditions: max 10 µM
In short: (§1)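 Viability was measured with CellTiter-Glo 2.0 luminescence after 72 hours of dosing at a final DMSO of typically 0.2%, and scaled between blank-well and DMSO-well means. Beforehand, cancer cell lines sat 24 hours at 37°C and 5% CO2 in 1536-well plates in 7.5 μl DMEM/F12 or RPMI with 10% FBS. A non-linear mixed effects model fitted two-parameter logistic curves to the dose responses. The single-agent IC50 comes from these fits.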

AZD2811 = compound: CCN(CCO)CCCOc1ccc2c(Nc3cc(CC(=O)Nc4cccc(F)c4)[nH]n3)ncnc2c1 [AZD2811]; conditions: max 1 µM
In short: as §1

AZD5991 = compound: Cc1c2c(nn1C)CSCc1cc(n(C)n1)CSc1cc(c3ccccc3c1)OCCCc1c(C(=O)O)n(C)c3c-2c(Cl)ccc13 [AZD5991]; conditions: max 1 µM
In short: as §1

Gefitinib = compound: COc1cc2ncnc(Nc3ccc(F)c(Cl)c3)c2cc1OCCCN1CCOCC1 [Gefitinib]; conditions: max 10 µM
In short: as §1

AZD5153 = compound: COc1nnc2ccc(N3CCC(c4ccc(OCCN5CCN(C)C(=O)[C@H]5C)cc4)CC3)nn12 [AZD5153]; conditions: max 1 µM
In short: as §1

SN-38 = compound: CCc1c2c(nc3ccc(O)cc13)-c1cc3c(c(=O)n1C2)COC(=O)[C@]3(O)CC [SN-38]; conditions: max 0.3 µM
In short: as §1

Lapatinib = compound: CS(=O)(=O)CCNCc1ccc(-c2ccc3ncnc(Nc4ccc(OCc5cccc(F)c5)c(Cl)c4)c3c2)o1 [Lapatinib]; conditions: max 10 µM
In short: as §1

Prexasertib = compound: COc1cccc(OCCCN)c1-c1cc(Nc2cnc(C#N)cn2)n[nH]1 [Prexasertib]; conditions: max 1 µM
In short: as §1

Doxorubicin = compound: COc1cccc2c1C(=O)c1c(O)c3c(c(O)c1C2=O)C[C@@](O)(C(=O)CO)C[C@@H]3O[C@H]1C[C@H](N)[C@H](O)[C@H](C)O1 [Doxorubicin]; conditions: max 1 µM
In short: as §1

AZD7648 = compound: Cc1cc2ncnn2cc1Nc1ncc2c(n1)n(C1CCOCC1)c(=O)n2C [AZD7648]; conditions: max 10 µM
In short: as §1

Venetoclax = compound: CC1(C)CCC(CN2CCN(c3ccc(C(=O)NS(=O)(=O)c4ccc(NCC5CCOCC5)c([N+](=O)[O-])c4)c(Oc4cnc5[nH]ccc5c4)c3)CC2)=C(c2ccc(Cl)cc2)C1 [Venetoclax]; conditions: max 1 µM
In short: as §1

Dasatinib = compound: CC1=C(C(=CC=C1)Cl)NC(=O)C2=CN=C(S2)NC3=CC(=NC(=N3)C)N4CCN(CC4)CCO [Dasatinib]; conditions: max 2 µM
In short: as §1

Crizotinib = compound: C[C@@H](Oc1cc(-c2cnn(C3CCNCC3)c2)cnc1N)c1c(Cl)ccc(F)c1Cl [Crizotinib]; conditions: max 10 µM
In short: as §1

Capivasertib = compound: C1CN(CCC1(C(=O)N[C@@H](CCO)C2=CC=C(C=C2)Cl)N)C3=NC=NC4=C3C=CN4 [Capivasertib]; conditions: max 10 µM
In short: as §1

AZD6738 = compound: C[C@@H]1COCCN1C2=NC(=NC(=C2)C3(CC3)[S@](=N)(=O)C)C4=C5C=CNC5=NC=C4 [AZD6738]; conditions: max 10 µM
In short: as §1

Taselisib = compound: Cc1nc(-c2cn3c(n2)-c2ccc(-c4cnn(C(C)(C)C(N)=O)c4)cc2OCC3)n(C(C)C)n1 [Taselisib]; conditions: max 10 µM
In short: as §1

AZD4320 = compound: CN(CC[C@H](CSC1=CC=CC=C1)NC2=C(C=C(C=C2)S(=O)(=O)NC(=O)C3=CC=C(C=C3)N4CCC(CC4)[C@H](C5=CC=CC=C5C6=CC=C(C=C6)Cl)O)S(=O)(=O)C(F)(F)F)CCO [AZD4320]; conditions: max 1 µM
In short: as §1

AZD0156 = compound: CN(C)CCCOc1ccc(-c2ccc3ncc4c(c3c2)n(C2CCOCC2)c(=O)n4C)cn1 [AZD0156]; conditions: max 3 µM
In short: as §1

Savolitinib = compound: C[C@@H](c1ccc2nccn2c1)n1nnc2ncc(-c3cnn(C)c3)nc21 [Savolitinib]; conditions: max 1 µM
In short: as §1

Selumetinib = compound: Cn1cnc2c(F)c(Nc3ccc(Br)cc3Cl)c(C(=O)NOCCO)cc21 [Selumetinib]; conditions: max 10 µM
In short: as §1

Alisertib = compound: COc1cc(Nc2ncc3c(n2)-c2ccc(Cl)cc2C(c2c(F)cccc2OC)=NC3)ccc1C(=O)O [Alisertib]; conditions: max 10 µM
In short: as §1

SG3199 = compound: CC1=CN2[C@@H](C1)C=NC3=CC(=C(C=C3C2=O)OC)OCCCCCOC4=C(C=C5C(=C4)N=C[C@@H]6CC(=CN6C5=O)C)OC [SG3199]; conditions: max 0.001 µM
In short: as §1

AZD1390 = compound: CC(C)n1c(=O)n(C)c2cnc3cc(F)c(-c4ccc(OCCCN5CCCCC5)nc4)cc3c21 [AZD1390]; conditions: max 0.3 µM
In short: as §1

Trametinib = compound: CC(=O)Nc1cccc(-n2c(=O)n(C3CC3)c(=O)c3c(Nc4ccc(I)cc4F)n(C)c(=O)c(C)c32)c1 [Trametinib]; conditions: max 1 µM
In short: as §1

Palbociclib = compound: CC(=O)c1c(C)c2cnc(Nc3ccc(N4CCNCC4)cn3)nc2n(C2CCCC2)c1=O [Palbociclib]; conditions: max 10 µM
In short: as §1

AZD8186 = compound: C[C@@H](Nc1cc(F)cc(F)c1)c1cc(C(=O)N(C)C)cc2c(=O)cc(N3CCOCC3)oc12 [AZD8186]; conditions: max 3 µM
In short: as §1

AZD1775 = compound: C=CCn1c(=O)c2cnc(Nc3ccc(N4CCN(C)CC4)cc3)nc2n1-c1cccc(C(C)(C)O)n1 [AZD1775]; conditions: max 3 µM
In short: as §1

Olaparib = compound: O=C(c1cc(Cc2n[nH]c(=O)c3ccccc23)ccc1F)N1CCN(C(=O)C2CC2)CC1 [Olaparib]; conditions: max 10 µM
In short: as §1

Cell Line	IC50, cell viability 72 h (MK-2206) [µM]	IC50, cell viability 72 h (AZD2811) [µM]	IC50, cell viability 72 h (AZD5991) [µM]	IC50, cell viability 72 h (Gefitinib) [µM]	IC50, cell viability 72 h (AZD5153) [µM]	IC50, cell viability 72 h (SN-38) [µM]	IC50, cell viability 72 h (Lapatinib) [µM]	IC50, cell viability 72 h (Prexasertib) [µM]	IC50, cell viability 72 h (Doxorubicin) [µM]	IC50, cell viability 72 h (AZD7648) [µM]	IC50, cell viability 72 h (Venetoclax) [µM]	IC50, cell viability 72 h (Dasatinib) [µM]	IC50, cell viability 72 h (Crizotinib) [µM]	IC50, cell viability 72 h (Capivasertib) [µM]	IC50, cell viability 72 h (AZD6738) [µM]	IC50, cell viability 72 h (Taselisib) [µM]	IC50, cell viability 72 h (AZD4320) [µM]	IC50, cell viability 72 h (AZD0156) [µM]	IC50, cell viability 72 h (Savolitinib) [µM]	IC50, cell viability 72 h (Selumetinib) [µM]	IC50, cell viability 72 h (Alisertib) [µM]	IC50, cell viability 72 h (SG3199) [µM]	IC50, cell viability 72 h (AZD1390) [µM]	IC50, cell viability 72 h (Trametinib) [µM]	IC50, cell viability 72 h (Palbociclib) [µM]	IC50, cell viability 72 h (AZD8186) [µM]	IC50, cell viability 72 h (AZD1775) [µM]	IC50, cell viability 72 h (Olaparib) [µM]
HCC1954 (Breast Carcinoma)	> 10	> 1	0.133	> 10	> 1	> 0.3	6.26	0.0598	> 1	> 10	> 1	> 2	> 10	3.24	> 10	0.122	> 1	> 3	> 1	> 10	> 10	> 0.001	> 0.3	> 1	> 10	> 3	1.97	> 10
LN-405 (Glioblastoma)	> 10	> 1	> 1	> 10	> 1	> 0.3	> 10	> 1	> 1	> 10	> 1	> 2	> 10	> 10	> 10	6.55	> 1	> 3	> 1	> 10	> 10	> 0.001	> 0.3	> 1	> 10	> 3	> 3	> 10
NCI-H2591 (Mesothelioma)	> 10	> 1	> 1	> 10	> 1	0.0717	> 10	> 1	> 1	> 10	> 1	> 2	> 10	> 10	> 10	> 10	> 1	> 3	> 1	> 10	> 10	> 0.001	> 0.3	> 1	> 10	> 3	> 3	> 10
